Here are results for 1 compound from BindingDB's records for doi:10.1016/j.ejmech.2019.111668 (Yantai University, 2019).

A short description of data set [1]: Reversal of P-gp-mediated multidrug resistance in human KBV cells assessed as potentiation of irinotecan-induced cytotoxicity by measuring irinotecan IC50 at 5 uM after 72 hrs by MTT assay (Rvb = 49.2 +/- 0.46 nM). For orientation: Tetrazolium assays rely on reduction of a dye to a coloured formazan, in cell work by metabolically active cells.
A short description of data set [2]: Reversal of P-gp-mediated multidrug resistance in human KBV cells assessed as potentiation of irinotecan-induced cytotoxicity by measuring irinotecan IC50 at 10 uM after 72 hrs by MTT assay (Rvb = 49.2 +/- 0.46 nM).
Data set [3] can be described thus: Reversal of P-gp-mediated multidrug resistance in human KBV cells assessed as potentiation of paclitaxel-induced cytotoxicity by measuring paclitaxel IC50 at 5 uM after 72 hrs by MTT assay (Rvb = 352.31 +/- 10.9 nM).
Data set [4] can be described thus: Reversal of P-gp-mediated multidrug resistance in human KBV cells assessed as potentiation of vincristine-induced cytotoxicity by measuring vincristine IC50 at 5 uM after 72 hrs by MTT assay (Rvb = 2.92 +/- 0.31 nM).
Data set [5] is described as follows: Reversal of P-gp-mediated multidrug resistance in human KBV cells assessed as potentiation of paclitaxel-induced cytotoxicity by measuring paclitaxel IC50 at 10 uM after 72 hrs by MTT assay (Rvb = 352.31 +/- 10.9 nM).
The nature of data set [6]: Reversal of P-gp-mediated multidrug resistance in human KBV cells assessed as potentiation of vincristine-induced cytotoxicity by measuring vincristine IC50 at 10 uM after 72 hrs by MTT assay (Rvb = 2.92 +/- 0.31 nM).

The term IC50 denotes the concentration that gives 50% inhibition. For the compound `CC(=O)O[C@H]1C[C@@]2(C)[C@@H](C[C@@H](O)[C@H]3[C@@]4(C)CC[C@@H](O)[C@@H](C)[C@@H]4CC[C@@]32C)/C1=C(\CCC=C(C)C)C(=O)OCc1ccccc1`, the IC50 in data set [1] came out at 37200 nM; in data set [2] it was 16200 nM; in data set [3], 17 nM; in data set [4], 144 nM; in data set [5], 7 nM; in data set [6], 92 nM.
